The source of these data is publication PMC5003625 (Journal of medicinal chemistry, 2016).

In one experiment the test system is EZH2. The following applies: cited from earlier work; for selectivity for EZH2 over EZH1: reported inhibitors.
Experiment [1] concerns the target EZH2 trimeric complex (EZH2:EED:SUZ12) (Homo sapiens, UniProt Q15910). The experiment is described as follows: Methyltransferase activity assay. Type of experiment: biochemical. The following applies: for fold loss of potency for EZH2: relative to the parent compound of the sentence (5, 24 or 53).
The target in experiment [2] is EZH1 pentameric complex (EZH1:EED:SUZ12:RBBP4:AEBP2) (Homo sapiens, UniProt Q92800). Kind of experiment: Methyltransferase activity assay. Type of experiment: biochemical.
Sequence of EZH1 pentameric complex (EZH1:EED:SUZ12:RBBP4:AEBP2) (Q92800 whole entry): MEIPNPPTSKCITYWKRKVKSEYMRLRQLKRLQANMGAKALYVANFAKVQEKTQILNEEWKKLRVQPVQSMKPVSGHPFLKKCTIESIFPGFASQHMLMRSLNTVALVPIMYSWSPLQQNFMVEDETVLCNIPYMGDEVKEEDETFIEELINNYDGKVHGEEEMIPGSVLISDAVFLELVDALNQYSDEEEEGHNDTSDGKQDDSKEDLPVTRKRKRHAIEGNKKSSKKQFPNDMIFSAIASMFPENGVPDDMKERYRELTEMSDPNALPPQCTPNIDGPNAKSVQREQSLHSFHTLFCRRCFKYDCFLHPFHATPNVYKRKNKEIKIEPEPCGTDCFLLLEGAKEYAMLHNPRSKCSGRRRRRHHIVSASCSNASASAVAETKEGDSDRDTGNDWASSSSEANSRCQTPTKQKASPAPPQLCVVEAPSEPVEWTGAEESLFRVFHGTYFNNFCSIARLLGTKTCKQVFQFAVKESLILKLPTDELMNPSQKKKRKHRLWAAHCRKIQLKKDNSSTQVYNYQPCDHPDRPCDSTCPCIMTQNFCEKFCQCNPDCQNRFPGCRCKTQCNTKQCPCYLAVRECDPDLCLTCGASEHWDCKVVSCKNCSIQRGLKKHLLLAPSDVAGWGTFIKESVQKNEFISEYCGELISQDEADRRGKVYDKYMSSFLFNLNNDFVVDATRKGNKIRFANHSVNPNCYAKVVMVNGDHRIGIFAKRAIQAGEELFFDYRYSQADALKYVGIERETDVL
Sequence of EZH1 pentameric complex (EZH1:EED:SUZ12:RBBP4:AEBP2) (O75530 whole entry partner): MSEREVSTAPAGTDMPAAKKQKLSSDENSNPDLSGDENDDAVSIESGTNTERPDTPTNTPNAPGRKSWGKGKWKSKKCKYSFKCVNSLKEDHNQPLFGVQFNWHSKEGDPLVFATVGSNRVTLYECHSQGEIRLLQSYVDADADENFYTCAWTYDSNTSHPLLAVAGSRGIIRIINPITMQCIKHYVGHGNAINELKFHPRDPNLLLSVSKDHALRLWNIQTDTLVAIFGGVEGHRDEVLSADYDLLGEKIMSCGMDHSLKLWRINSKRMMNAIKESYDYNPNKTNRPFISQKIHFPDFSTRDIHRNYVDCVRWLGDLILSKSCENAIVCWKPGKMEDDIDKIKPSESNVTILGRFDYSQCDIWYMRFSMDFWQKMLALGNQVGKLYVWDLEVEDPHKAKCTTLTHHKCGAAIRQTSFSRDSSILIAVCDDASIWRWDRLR
Sequence of EZH1 pentameric complex (EZH1:EED:SUZ12:RBBP4:AEBP2) (Q15022 whole entry partner): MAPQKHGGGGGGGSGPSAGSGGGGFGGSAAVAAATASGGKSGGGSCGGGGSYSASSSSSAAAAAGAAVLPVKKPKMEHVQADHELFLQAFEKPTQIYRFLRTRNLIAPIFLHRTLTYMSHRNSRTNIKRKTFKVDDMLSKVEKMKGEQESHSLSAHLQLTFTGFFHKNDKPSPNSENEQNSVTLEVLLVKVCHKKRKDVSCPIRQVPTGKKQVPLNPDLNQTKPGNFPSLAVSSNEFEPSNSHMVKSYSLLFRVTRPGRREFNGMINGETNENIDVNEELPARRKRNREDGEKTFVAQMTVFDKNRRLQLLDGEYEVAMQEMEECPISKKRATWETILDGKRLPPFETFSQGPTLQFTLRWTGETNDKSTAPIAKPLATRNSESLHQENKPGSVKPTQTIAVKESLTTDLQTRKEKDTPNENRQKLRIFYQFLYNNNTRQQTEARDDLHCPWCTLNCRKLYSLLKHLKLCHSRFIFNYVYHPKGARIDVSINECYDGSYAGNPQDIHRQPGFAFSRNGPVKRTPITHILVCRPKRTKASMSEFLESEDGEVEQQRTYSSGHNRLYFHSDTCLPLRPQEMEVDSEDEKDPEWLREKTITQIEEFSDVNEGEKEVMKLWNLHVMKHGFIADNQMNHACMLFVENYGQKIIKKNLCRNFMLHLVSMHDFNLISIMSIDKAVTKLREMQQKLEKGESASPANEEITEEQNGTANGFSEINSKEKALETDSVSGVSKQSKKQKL
Sequence of EZH1 pentameric complex (EZH1:EED:SUZ12:RBBP4:AEBP2) (Q09028 whole entry partner): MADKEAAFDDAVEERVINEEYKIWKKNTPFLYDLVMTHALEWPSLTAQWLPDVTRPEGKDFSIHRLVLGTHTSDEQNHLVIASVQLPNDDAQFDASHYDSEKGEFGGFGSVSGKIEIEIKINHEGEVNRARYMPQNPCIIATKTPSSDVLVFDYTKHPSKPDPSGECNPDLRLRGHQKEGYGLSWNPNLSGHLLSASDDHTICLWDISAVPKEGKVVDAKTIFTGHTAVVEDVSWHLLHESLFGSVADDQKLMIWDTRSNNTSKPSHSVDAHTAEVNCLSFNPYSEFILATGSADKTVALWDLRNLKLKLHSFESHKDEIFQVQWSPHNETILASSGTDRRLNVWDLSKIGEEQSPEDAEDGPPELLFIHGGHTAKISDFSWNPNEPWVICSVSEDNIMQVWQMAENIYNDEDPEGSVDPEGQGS
Sequence of EZH1 pentameric complex (EZH1:EED:SUZ12:RBBP4:AEBP2) (Q6ZN18 whole entry partner): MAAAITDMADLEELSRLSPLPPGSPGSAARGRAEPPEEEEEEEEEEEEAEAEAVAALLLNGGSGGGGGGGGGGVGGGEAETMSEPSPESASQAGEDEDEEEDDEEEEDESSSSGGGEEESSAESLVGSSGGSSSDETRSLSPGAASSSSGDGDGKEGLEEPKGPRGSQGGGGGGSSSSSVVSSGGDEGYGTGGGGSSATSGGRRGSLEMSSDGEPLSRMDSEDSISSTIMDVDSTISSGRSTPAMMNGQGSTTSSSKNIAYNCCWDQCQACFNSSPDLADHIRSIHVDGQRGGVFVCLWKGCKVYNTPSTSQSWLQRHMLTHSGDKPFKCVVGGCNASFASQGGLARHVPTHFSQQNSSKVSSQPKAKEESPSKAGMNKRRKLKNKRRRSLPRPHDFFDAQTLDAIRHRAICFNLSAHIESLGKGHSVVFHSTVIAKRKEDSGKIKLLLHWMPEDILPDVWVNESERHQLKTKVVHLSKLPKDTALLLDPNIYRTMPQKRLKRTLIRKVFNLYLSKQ

Sequence of EZH2 trimeric complex (EZH2:EED:SUZ12) (Q15910 whole entry): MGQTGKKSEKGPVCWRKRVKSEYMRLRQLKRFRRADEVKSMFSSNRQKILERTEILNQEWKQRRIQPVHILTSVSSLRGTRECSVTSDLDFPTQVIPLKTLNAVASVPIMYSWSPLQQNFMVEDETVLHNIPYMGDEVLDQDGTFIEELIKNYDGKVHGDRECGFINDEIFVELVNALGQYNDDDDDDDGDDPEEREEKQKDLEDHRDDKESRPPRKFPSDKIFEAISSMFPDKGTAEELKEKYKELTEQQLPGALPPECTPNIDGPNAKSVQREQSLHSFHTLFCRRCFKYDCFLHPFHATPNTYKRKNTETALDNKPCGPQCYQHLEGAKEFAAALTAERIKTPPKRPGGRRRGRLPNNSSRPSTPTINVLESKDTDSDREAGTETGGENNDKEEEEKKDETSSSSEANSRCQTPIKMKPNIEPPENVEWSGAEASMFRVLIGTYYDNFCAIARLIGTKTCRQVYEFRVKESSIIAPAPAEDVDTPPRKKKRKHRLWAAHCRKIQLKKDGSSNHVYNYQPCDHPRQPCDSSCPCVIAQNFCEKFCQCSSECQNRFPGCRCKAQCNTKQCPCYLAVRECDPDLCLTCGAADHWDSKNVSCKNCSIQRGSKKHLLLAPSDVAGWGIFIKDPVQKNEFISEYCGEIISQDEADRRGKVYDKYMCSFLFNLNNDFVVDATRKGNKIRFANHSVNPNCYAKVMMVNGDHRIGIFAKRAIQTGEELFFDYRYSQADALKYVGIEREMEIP
Sequence of EZH2 trimeric complex (EZH2:EED:SUZ12) (O75530 whole entry partner): as the sequence (O75530 whole entry partner) above
Sequence of EZH2 trimeric complex (EZH2:EED:SUZ12) (Q15022 whole entry partner): as the sequence (Q15022 whole entry partner) above

Regarding `Cc1cc(C)c(CNC(=O)c2cc(-c3ccc(CN4CCOCC4)cc3)cc3c2cnn3C2CCCC2)c(=O)[nH]1` [Compound 1, EPZ005687], the “selectivity for EZH2 over EZH1” value with EZH2 is listed as 50 fold.

Consider `CC[C@H](C)n1cc(C)c2c(C(=O)NCc3c(C)cc(C)[nH]c3=O)cc(-c3ccc(N4CCNCC4)nc3)cc21` [Compound 2, GSK126], for which the “selectivity for EZH2 over EZH1” value in the experiment on EZH2 was 150 fold. For the molecule `CCCc1cc(C)[nH]c(=O)c1CNC(=O)c1cc(-c2ccnc(N3CCN(C)CC3)c2)cc2c1cnn2C(C)C` [Compound 3, GSK343], in the experiment with EZH2, the “selectivity for EZH2 over EZH1” value is reported as 60 fold. With `CCC(CC)n1ccc2c(C(=O)NCc3c(C)cc(C)[nH]c3=O)cc(C#N)cc21` [Compound 4, EI1], the “selectivity for EZH2 over EZH1” value in the experiment on EZH2 was 140 fold. For `CCCc1cc(C)[nH]c(=O)c1CNC(=O)c1cc(-c2ccc(N3CCN(C(C)C)CC3)nc2)cc2c1cnn2C(C)C` [Compound 5, UNC1999], in the experiment on EZH2 (read-out: IC50 EZH2, previously reported), the IC50 (as a rule, the point on the concentration scale where inhibition reaches its midpoint) is under 10 nM. In the case of `COc1cc(C)[nH]c(=O)c1CNC(=O)c1c(C)n([C@H](C)C2CCOCC2)c2ccccc12` [Compound 8, CPI-360], the “selectivity for EZH2 over EZH1” value in the experiment on EZH2 is recorded as 100 fold. Consider `CCN(c1cc(-c2ccc(N3CCN(C)CC3)nc2)cc(C(=O)NCc2c3c(c(C)[nH]c2=O)CCCC3)c1C)C1CCOCC1` [Compound 10, ZLD1039], for which the “selectivity for EZH2 over EZH1” value with EZH2 is listed as 12 fold. For the molecule `CCCc1cc(C)[nH]c(=O)c1CNC(=O)c1nn(C(C)C)c2ccc(-c3ccc(N4CCN(C(C)C)CC4)nc3)cc12` [Compound 46, 1-Isopropyl-5-(6-(4-isopropylpiperazin-1-yl)pyridin-3-yl)-N-((6-methyl-2-oxo-4-propyl-1,2-dihydropyridin-3-yl)methyl)-1H-inda-zole-3-carboxamide], in experiment [1], the “inhibitory activity against EZH2, in words” value is “complete loss of potency”. For the same molecule, the “inhibitory activity against EZH1, in words” value in experiment [2] is reported as “complete loss of potency”. Consider `CCCc1cc(C)[nH]c(=O)c1CNC(=O)c1cccn2c(-c3ccc(N4CCN(C(C)C)CC4)nc3)cnc12` [Compound 48, 3-(6-(4-Isopropylpiperazin-1-yl)pyridin-3-yl)-N-((6-methyl-2-oxo-4-propyl-1,2-dihydropyridin-3-yl)methyl)imidazo[1,2-a]pyridine-8-carboxamide], for which the “inhibitory activity against EZH2, in words” value in experiment [1] is recorded as “did not display any inhibitory activity”. Further, in experiment [2], the “inhibitory activity against EZH1, in words” value is “did not display any inhibitory activity”. Turning to `CCCc1cc(C)[nH]c(=O)c1CNC(=O)c1cnn2c(-c3ccc(N4CCN(C(C)C)CC4)nc3)cccc12` [Compound 49, 7-(6-(4-Isopropylpiperazin-1-yl)pyridin-3-yl)-N-((6-methyl-2-oxo-4-propyl-1,2-dihydropyridin-3-yl)methyl)pyrazolo[1,5-a]pyridine-3-carboxamide], in experiment [1], the “inhibitory activity against EZH2, in words” value was “did not display any inhibitory activity”. Also, the “inhibitory activity against EZH1, in words” value in experiment [2] is “did not display any inhibitory activity”. In the case of `CCCc1cc(C)[nH]c(=O)c1CNC(=O)c1cn2ccc(-c3ccc(N4CCN(C(C)C)CC4)nc3)cc2n1` [Compound 50, 7-(6-(4-Isopropylpiperazin-1-yl)pyridin-3-yl)-N-((6-methyl-2-oxo-4-propyl-1,2-dihydropyridin-3-yl)methyl)imidazo[1,2-a]pyridine-2-carboxamide], in experiment [1], the “inhibitory activity against EZH2, in words” value is “inactive”. For the same molecule, the “inhibitory activity against EZH1, in words” value in experiment [2] is “inactive”.

Turning to `CCCc1cc(C)[nH]c(=O)c1CNC(=O)c1cc(-c2ccc(N3CCN(C(C)C)CC3)nc2)cc2c1cnn2C` [Compound 55, 6-(6-(4-Isopropylpiperazin-1-yl)pyridin-3-yl)-1-methyl-N-((6-methyl-2-oxo-4-propyl-1,2-dihydropyridin-3-yl)methyl)-1H-inda-zole-4-carboxamide], the “fold loss of potency for EZH2” value in experiment [1] was 10–20 fold. The “inhibitory activity against EZH1, in words” value in experiment [2] is reported as “did not have appreciable inhibitory activity”. Turning to `CCCc1cc(C)[nH]c(=O)c1CNC(=O)c1cc(-c2ccc(N3CCN(C(C)C)CC3)nc2)cc2c1cnn2C1CCCCCC1` [Compound 56, 1-Cycloheptyl-6-(6-(4-isopropylpiperazin-1-yl)pyridin-3-yl)-N-((6-methyl-2-oxo-4-propyl-1,2-dihydropyridin-3-yl)methyl)-1H-inda-zole-4-carboxamide], in experiment [1], the “fold loss of potency for EZH2” value is recorded as 10–20 fold. For the same molecule, the “inhibitory activity against EZH1, in words” value in experiment [2] was “did not have appreciable inhibitory activity”.

In the case of `CCCc1cc(C)[nH]c(=O)c1CNC(=O)c1cc(-c2ccc(N3CCN(CC)CC3)nc2)cc2c1cnn2C(C)C` [Compound 64], the “inhibitory activity against EZH2, in words” value in experiment [1] is given as “did not affect the potency”. In experiment [2], the “inhibitory activity against EZH1, in words” value is on record as “did not affect the potency”.

For `CCCc1cc(C)[nH]c(=O)c1CNC(=O)c1cc(-c2ccc(N3CCNCC3)nc2)cc2c1cnn2C(C)C` [Compound 65], in experiment [1], the “inhibitory activity against EZH2, in words” value is given as “did not affect the potency”. Besides, the “inhibitory activity against EZH1, in words” value in experiment [2] is “did not affect the potency”.
